According to patent US8952163B2, “Substituted hydroxamic acids and uses thereof” (Millennium Pharmaceuticals, Inc., priority 2010, dated 2015):

The compounds below were run against T1, purified human HDAC6 (Homo sapiens, UniProt Q9UBN7) (assay: HDAC6 Enzyme Assay). Conditions: test compound at 1.235 μM; substrate Ac-Arg-Gly-Lys(Ac)-AMC, 1 hour at 30° C.; read-out: Percent Inhibition at 1.235 μM.
T1 construct: purchased BPS Bioscience 5006
T1 sequence (Q9UBN7 1-1215): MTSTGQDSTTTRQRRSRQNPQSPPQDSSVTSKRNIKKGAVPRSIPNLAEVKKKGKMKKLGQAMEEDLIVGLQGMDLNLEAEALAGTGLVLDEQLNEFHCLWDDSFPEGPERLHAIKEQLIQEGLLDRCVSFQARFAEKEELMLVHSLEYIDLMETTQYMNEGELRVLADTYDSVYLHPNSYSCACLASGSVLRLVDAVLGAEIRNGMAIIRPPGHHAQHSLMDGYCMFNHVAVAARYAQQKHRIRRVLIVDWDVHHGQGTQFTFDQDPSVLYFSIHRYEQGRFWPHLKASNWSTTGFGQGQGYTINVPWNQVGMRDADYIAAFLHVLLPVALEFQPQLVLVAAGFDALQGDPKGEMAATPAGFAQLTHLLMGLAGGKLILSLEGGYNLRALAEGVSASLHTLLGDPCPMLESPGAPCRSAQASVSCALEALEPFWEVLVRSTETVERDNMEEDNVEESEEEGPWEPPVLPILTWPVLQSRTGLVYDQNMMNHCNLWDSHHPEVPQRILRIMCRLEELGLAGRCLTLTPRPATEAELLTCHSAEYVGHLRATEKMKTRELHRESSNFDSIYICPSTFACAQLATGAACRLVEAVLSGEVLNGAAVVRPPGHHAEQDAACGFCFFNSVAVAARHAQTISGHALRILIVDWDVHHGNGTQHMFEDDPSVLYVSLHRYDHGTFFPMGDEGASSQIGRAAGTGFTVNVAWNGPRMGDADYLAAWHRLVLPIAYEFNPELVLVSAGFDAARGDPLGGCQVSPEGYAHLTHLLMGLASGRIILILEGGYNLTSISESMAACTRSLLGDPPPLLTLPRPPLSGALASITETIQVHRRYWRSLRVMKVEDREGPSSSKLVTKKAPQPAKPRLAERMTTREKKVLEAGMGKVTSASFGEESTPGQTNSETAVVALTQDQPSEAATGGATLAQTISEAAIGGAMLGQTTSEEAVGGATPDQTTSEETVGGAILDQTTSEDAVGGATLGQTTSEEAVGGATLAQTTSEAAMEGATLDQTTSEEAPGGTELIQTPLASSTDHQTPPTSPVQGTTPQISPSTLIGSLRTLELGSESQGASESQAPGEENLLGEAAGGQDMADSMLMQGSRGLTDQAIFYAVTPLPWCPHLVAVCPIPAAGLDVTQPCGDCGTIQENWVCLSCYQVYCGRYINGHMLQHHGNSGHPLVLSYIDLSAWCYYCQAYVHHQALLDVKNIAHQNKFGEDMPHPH
Assay type: biochemical
Protocol: To measure the inhibition of HDAC6 activity, purified human HDAC6 (BPS Bioscience; Cat. No. 5006) is incubated with substrate Ac-Arg-Gly-Lys(Ac)-AMC peptide (Bachem Biosciences; Cat. No. I-1925) for 1 hour at 30° C. in the presence of test compounds or vehicle DMSO control. The reaction is stopped with the HDAC inhibitor trichostatin A (Sigma; Cat. No. T8552) and the amount of Arg-Gly-Lys-AMC generated is quantitated by digestion with trypsin (Sigma; Cat. No. T1426) and subsequent measurement of the amount of AMC released using a fluorescent plate reader (Pherastar, BMG Technologies) set at Ex 340 nm and Em 460 nm. Concentration response curves are generated by calculating the fluorescence increase in test compound-treated samples relative to DMSO-treated controls, and percentage inhibition values at a single concentration or enzyme inhibition (IC50) values are determined from those curves. One skilled in the art will appreciate that the values generated either as percentage inhibition at a single concentration or IC50 values are subject to experimental variation.

inhibition at 1.235 µM [%]	Structure (SMILES)
95.3	CC(C)(C)OC(=O)N1CCc2cc(C(=O)NO)cnc2C1 [Compound I-3, tert-butyl 3-[(hydroxyamino)carbonyl]-5,8-dihydro-1,7-naphthyridine-7(6H)-carboxylate]
97.2	O=C(NO)c1cnc2c(c1)CCN(C(=O)c1cc3ccccc3o1)C2 [Compound I-18, 7-(1-benzofuran-2-ylcarbonyl)-N-hydroxy-5,6,7,8-tetrahydro-1,7-naphthyridine-3-carboxamide]
67.2	O=C(NO)c1ccc2c(n1)CCN(C(=O)Nc1ccc(-c3ccccc3)s1)C2 [Compound I-54, N^2-hydroxy-N^6-(5-phenyl-2-thienyl)-7,8-dihydro-1,6-naphthyridine-2,6(5H)-dicarboxamide]
